Data published in PMC10721329, “Quisinostat is a brain-penetrant radiosensitizer in glioblastoma” (JCI Insight, 2023).

Test system: GB126 cells
Assay: γ-H2AX foci immunofluorescence
Type: cell-based, human
Conditions: 86 nM QST, value per individual nucleus, image series of replicate experiments
Protocol: To test the DNA-damaging effects of QST in GBM cells, we treated 2 independent GSC lines with QST for 72 hours at the IC50 and analyzed changes in the levels of phosphorylated histone H2AX (γ-H2AX), a marker for DNA double-strand breaks (DSBs) ([27]). […]
anti-GAPDH (1:1000, Cell Signaling Technologies, 97166), rabbit anti-cleaved poly (ADP-ribose) polymerase Asp 214 (1:1000, Cell Signaling, 9541), rabbit anti-BDNF (1:1000, Abcam, ab108319) and mouse anti- β-actin (1:1000, Bio-Rad, MCA5775GA). Membranes were probed with fluorophore-conjugated anti-mouse or anti-rabbit secondary antibodies (1:10,000; ThermoFisher Scientific). Western blots were developed using the LI-COR Odyssey CLx imaging system (LI-COR) and quantitated using the Image Studio Lite software. All Western blots are representative images from a minimum of 3 biological replicates.
Cells were grown as adherent cultures on laminin -coated glass coverslips (Thermo Fisher Scientific) in GSC media. Twenty-four hours after plating, the cells were treated with QST or DMSO diluted in GSC media. Seventy-two hours after treatment, cells were fixed with 4% paraformaldehyde for 13 minutes at room temperature. Cells were washed with phosphate-buffered saline (PBS) and subsequently permeabilized and blocked with 5% normal goat serum (Sigma Aldrich) and 0.2% Triton X -100 in PBS (blocking solution) for 30 minutes at room temperature. […]
SuperFrost Plus microscope slides using Fluoroshield Mounting Medium containing DAPI (Abcam). […] The fraction of Ki67- and Cleaved Caspase 3– positive cells were counted from 5 independent images from each condition. The mean and standard deviation were calculated from 3 biological replicates for all control and QST-treated […]
For cell cycle analysis following short -term DMSO or QST treatment in GSC cultures, approximately 1 million cells were harvested, washed in cold 1× PBS once, and fixed with 3–4 mL of ice cold 70% ethanol, added dropwise while vortexing. […] Data from all the samples were obtained using a Fortessa flow cytometer (BD Biosciences) and analyzed using the FlowJo software (TreeStar). […]

With Cn1cc(CNCC2CCN(c3ncc(C(=O)NO)cn3)CC2)c2ccccc21 [QST, quisinostat] the “Number of foci/ Nucleus (γH2AX)” value was 12.
